Like-named read-outs stand apart in the source and are kept apart here.
How the values were obtained:
[1] = target: CYP2D6 (Homo sapiens (Human), UniProt P10635); assay: CYP enzyme inhibition, fluorescent substrate (AMMC); format: in vitro ADME; conditions: read-out: Cyp IC50 2D6
How it was run: (§1)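 Ten-point 1:1 compound dilutions in NADPH-regenerating cofactor mix, pre-incubated 10 min at 37 °C before enzyme/substrate addition: CYP1A2 0.5 pmol with 5 μM CEC, 15 min, 409 ex/460 em; CYP2D6 1.5 pmol with 1.5 μM AMMC, 30 min, 409 ex/530 em. IC50 from fluorescent product vs concentration.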

[2] = target: CYP3A4(BFC) (Homo sapiens (Human), UniProt P08684); assay: CYP enzyme inhibition, fluorescent substrate BFC
Chain of CYP3A4(BFC) (P08684 whole entry): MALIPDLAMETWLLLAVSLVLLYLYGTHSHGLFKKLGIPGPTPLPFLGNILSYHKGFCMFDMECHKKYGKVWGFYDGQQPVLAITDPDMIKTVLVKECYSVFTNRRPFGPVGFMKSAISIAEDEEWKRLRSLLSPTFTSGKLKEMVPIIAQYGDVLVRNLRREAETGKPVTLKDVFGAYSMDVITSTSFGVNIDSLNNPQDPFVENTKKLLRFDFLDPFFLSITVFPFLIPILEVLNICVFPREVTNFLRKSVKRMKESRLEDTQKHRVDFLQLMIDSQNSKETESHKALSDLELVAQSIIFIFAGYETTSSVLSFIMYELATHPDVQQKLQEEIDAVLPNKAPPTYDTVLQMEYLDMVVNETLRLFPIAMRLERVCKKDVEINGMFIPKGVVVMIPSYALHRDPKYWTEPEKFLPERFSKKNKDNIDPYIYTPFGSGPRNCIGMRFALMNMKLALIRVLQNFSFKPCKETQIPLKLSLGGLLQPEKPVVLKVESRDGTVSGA
How it was run: (§2)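 Human CYP activity was followed by the fluorescence of the metabolized product of a known substrate, which falls as metabolism is inhibited. Compounds from 100 mM DMSO stocks were serially diluted 1:1 over 10 points in co-factor mix and preincubated 10 min at 37 °C. IC50 was fitted from signal versus concentration.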

[3] = target: CYP2C9 (Homo sapiens (Human), UniProt P11712); assay: CYP enzyme inhibition, fluorescent substrate (MFC)
Chain of CYP2C9 (P11712 whole entry): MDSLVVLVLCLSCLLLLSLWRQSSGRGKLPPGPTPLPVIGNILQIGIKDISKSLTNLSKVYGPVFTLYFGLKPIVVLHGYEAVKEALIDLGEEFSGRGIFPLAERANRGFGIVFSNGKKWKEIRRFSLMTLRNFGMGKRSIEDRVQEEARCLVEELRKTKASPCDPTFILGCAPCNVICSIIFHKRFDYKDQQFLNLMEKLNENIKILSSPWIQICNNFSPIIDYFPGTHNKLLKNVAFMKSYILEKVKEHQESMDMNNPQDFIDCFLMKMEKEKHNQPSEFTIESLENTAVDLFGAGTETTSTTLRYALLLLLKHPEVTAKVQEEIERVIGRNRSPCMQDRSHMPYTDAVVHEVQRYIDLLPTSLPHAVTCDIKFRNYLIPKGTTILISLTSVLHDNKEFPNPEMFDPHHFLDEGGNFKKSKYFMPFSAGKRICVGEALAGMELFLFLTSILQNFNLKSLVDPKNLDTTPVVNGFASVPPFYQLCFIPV
How it was run: as §2

[4] = target: B-Raf V600E (Homo sapiens (Human), UniProt P15056, V600E); assay: B-Raf V600E kinase activity biochemical assay (AlphaScreen, biotin-MEK1 phosphorylation); conditions: for IC50: B-Raf V600E; for Biochemical activity ratio V600E/C: ratio of IC50 B-Raf V600E / c-Raf-1
Chain of B-Raf V600E (P15056 whole entry V600E): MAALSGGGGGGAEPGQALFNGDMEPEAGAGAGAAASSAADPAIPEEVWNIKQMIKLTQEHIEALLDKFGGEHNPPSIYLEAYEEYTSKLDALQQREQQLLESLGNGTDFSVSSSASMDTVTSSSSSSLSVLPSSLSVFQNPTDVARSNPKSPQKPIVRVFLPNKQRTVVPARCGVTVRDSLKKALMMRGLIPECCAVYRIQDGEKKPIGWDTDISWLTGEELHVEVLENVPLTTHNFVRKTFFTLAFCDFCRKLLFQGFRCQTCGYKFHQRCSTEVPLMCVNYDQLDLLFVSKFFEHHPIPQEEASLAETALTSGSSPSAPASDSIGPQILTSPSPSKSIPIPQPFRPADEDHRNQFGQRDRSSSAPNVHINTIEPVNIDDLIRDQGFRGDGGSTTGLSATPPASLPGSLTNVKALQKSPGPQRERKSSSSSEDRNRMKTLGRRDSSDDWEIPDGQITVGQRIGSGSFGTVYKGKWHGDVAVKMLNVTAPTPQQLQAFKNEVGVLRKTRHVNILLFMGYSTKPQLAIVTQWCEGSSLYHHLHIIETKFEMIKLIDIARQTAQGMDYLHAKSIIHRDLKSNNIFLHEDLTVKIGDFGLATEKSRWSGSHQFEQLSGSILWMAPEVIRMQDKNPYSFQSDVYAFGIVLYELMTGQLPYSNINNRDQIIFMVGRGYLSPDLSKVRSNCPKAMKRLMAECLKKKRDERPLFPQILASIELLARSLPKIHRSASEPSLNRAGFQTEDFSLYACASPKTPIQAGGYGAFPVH
How it was run: (§3)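 Biotin-MEK1 phosphorylation measured after 45 min kinase reaction at RT with 100 μM ATP final; compounds tested at 8 points from 0.1 mM DMSO stock.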

[5] = target: c-Raf-1 (Homo sapiens, UniProt P04049); assay: c-Raf-1 kinase activity biochemical assay (AlphaScreen, biotin-MEK1 phosphorylation)
Chain of c-Raf-1 (P04049 whole entry, looked up): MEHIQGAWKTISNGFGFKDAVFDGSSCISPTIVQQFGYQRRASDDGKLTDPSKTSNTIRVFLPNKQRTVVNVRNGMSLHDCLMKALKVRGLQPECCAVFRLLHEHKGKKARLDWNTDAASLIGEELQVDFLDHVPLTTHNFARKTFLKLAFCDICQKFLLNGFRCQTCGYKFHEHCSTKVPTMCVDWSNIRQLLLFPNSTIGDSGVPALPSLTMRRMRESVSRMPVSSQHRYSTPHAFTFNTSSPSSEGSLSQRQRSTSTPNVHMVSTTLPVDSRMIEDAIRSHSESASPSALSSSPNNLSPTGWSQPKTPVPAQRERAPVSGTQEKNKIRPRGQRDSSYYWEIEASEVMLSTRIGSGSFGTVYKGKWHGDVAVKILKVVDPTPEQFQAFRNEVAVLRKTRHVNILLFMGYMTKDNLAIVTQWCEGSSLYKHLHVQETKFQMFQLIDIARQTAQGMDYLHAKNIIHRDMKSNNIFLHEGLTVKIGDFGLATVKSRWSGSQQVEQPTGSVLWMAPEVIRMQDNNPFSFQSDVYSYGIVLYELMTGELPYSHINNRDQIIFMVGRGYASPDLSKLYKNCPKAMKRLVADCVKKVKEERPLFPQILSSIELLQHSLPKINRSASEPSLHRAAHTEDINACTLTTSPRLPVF
How it was run: as §3

[6] = target: B-Raf (Homo sapiens (Human), UniProt P15056); assay: B-Raf kinase activity biochemical assay (AlphaScreen, biotin-MEK1 phosphorylation); conditions: B-Raf
Chain of B-Raf (Homo sapiens (Human), UniProt P15056) (P15056 whole entry): as the sequence (P15056 whole entry V600E) above, with E600V counted along it
How it was run: as §3

[7] = system: B-Raf; assay: as above; conditions: for Biochemical activity ratio B/V600E: ratio of IC50 B-Raf / B-Raf V600E; for Biochemical activity ratio B/C: ratio of IC50 B-Raf / c-Raf-1
How it was run: as §3

[8] = target: CYP2C19 (Homo sapiens (Human), UniProt P33261); assay: CYP enzyme inhibition, fluorescent substrate (CEC)
Chain of CYP2C19 (P33261 whole entry): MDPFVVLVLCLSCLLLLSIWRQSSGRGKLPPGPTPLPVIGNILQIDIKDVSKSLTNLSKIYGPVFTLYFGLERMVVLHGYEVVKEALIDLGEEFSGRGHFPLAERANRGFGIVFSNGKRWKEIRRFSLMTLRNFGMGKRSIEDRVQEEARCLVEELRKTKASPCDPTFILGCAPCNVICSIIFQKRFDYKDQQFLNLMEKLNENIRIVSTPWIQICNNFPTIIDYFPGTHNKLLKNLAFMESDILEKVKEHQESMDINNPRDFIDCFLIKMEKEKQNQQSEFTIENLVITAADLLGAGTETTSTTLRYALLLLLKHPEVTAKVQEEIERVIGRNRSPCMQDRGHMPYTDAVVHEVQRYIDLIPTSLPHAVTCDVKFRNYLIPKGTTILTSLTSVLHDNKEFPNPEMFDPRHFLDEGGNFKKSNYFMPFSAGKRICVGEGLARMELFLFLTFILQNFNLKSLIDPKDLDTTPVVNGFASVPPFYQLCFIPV
How it was run: as §2

[9] = Relative solubility by turbidity threshold concentration in aqueous buffers (pH 1.5, 4.5, 6.8, 7.4); format: physicochemical; conditions: for turbidity threshold (L, M, H) 1.4: pH 1.4 [sic] (method: SGF pH 1.5); for turbidity threshold (L, M, H) 4.5: pH 4.5 (SIF); for turbidity threshold (L, M, H) 6.8: pH 6.8 (SIF); for turbidity threshold (L, M, H) 7.4: pH 7.4 (HEPES)
How it was run: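 Solubility class (high >250 μM, moderate 31.3–250 μM, low <31.3 μM) comes from the concentration where absorbance reaches a 0.01 threshold, averaged across 490/535/650 nm. Samples were compound dilutions from DMSO stock, 1 μL into 99 μL buffer at pH 1.5, 4.5, 6.8 or 7.4.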

[10] = target: CYP1A2 (Homo sapiens (Human), UniProt P05177); assay: CYP enzyme inhibition, fluorescent substrate (CEC)
Chain of CYP1A2 (P05177 whole entry): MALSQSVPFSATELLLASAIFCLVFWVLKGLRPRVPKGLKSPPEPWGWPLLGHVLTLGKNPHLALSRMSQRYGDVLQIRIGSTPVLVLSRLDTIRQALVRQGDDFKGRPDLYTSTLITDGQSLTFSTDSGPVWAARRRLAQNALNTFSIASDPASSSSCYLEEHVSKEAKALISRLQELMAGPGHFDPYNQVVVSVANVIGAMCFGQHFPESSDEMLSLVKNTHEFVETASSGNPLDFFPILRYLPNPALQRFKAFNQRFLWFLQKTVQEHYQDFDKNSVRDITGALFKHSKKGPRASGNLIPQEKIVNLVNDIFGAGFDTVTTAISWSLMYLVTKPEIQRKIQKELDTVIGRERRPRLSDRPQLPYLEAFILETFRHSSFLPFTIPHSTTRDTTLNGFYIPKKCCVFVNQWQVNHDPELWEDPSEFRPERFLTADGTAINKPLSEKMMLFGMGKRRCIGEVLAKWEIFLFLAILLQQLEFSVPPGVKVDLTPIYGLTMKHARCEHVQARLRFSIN
How it was run: as §1

[11] = target: CYP3A4(BQ) (Homo sapiens (Human), UniProt P08684); assay: CYP enzyme inhibition, fluorescent substrate BQ
Chain of CYP3A4(BQ) (P08684 whole entry): as the sequence (P08684 whole entry) above
How it was run: as §2

[12] = read-out: Cyp IC50 2C9, CYP2C9, substrate MFC
[13] = read-out: Cyp IC50 2C19, CYP2C19, substrate CEC
[14] = read-out: Cyp IC50 3A4(BFC), CYP3A4, substrate BFC
[15] = read-out: Cyp IC50 3A4(BQ), CYP3A4, substrate BQ

Chain of CYP2D6 (P10635 whole entry): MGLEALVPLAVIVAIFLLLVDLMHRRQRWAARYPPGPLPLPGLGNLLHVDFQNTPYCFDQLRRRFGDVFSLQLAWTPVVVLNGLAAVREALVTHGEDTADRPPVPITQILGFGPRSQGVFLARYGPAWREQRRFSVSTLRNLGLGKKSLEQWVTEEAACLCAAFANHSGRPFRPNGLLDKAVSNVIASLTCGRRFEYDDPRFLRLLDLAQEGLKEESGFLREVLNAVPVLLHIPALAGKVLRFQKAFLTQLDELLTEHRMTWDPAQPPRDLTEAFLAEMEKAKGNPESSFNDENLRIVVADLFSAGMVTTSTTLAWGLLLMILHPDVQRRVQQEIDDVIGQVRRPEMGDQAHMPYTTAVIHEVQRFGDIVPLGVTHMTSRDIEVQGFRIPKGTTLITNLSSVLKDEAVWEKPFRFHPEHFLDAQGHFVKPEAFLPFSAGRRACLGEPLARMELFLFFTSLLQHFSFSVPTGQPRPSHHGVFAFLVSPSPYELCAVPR

Row | SMILES | IC50 [1] | IC50 [2] | IC50 [3, 12] | IC50 [4] | Biochemical activity ratio V600E/C [4] | IC50 [5] | IC50 [6] | Biochemical activity ratio B/V600E [7] | Biochemical activity ratio B/C [7] | IC50 [8, 13] | turbidity threshold (L, M, H) 1.4 [9] | turbidity threshold (L, M, H) 4.5 [9] | turbidity threshold (L, M, H) 6.8 [9] | turbidity threshold (L, M, H) 7.4 [9] | IC50 ([10]; human, 15 min) | IC50 [11] | IC50 [2, 14] | IC50 [11, 15] | IC50 [3] | IC50 [8] | also measured
1 | CCCc1ccc(S(=O)(=O)Nc2ccc(F)c(C(=O)c3c[nH]c4ncnc(C)c34)c2F)cc1 [P-1007, N-[2,4-Difluoro-3-(4-methyl-7H-pyrrolo[2,3-d]pyrimidine-5-carbonyl)-phenyl]-4-propyl-benzenesulfonamide] | > 10 µM | 5 to 10 µM | > 10 µM | > 0.1 µM | >10 | < 0.1 µM | < 0.1 µM | 0.1-10 | 0.1-10 | > 10 µM | L (low solubility if the threshold concentration is <31.3 μM) | L (low solubility if the threshold concentration is <31.3 μM) | L (low solubility if the threshold concentration is <31.3 μM) | L (low solubility if the threshold concentration is <31.3 μM) | > 10 µM | 5 to 10 µM | – | – | – | – | –
2 | CN1CCC(Nc2ncnc3[nH]cc(C(=O)c4c(F)ccc(NS(=O)(=O)c5ccc(C(F)(F)F)cc5)c4F)c23)CC1 [P-1057, N-{2,4-Difluoro-3-[4-(1-methyl-piperidin-4-ylamino)-7H-pyrrolo[2,3-d]pyrimidine-5-carbonyl]-phenyl}-4-trifluoromethyl-benzenesulfonamide] | > 10 µM | – | > 10 µM | > 0.1 µM | >10 | < 0.1 µM | < 0.1 µM | 0.1-10 | 0.1-10 | > 10 µM | H (high solubility if the threshold concentration is >250 μm) | H (high solubility if the threshold concentration is >250 μm) | M (moderate solubility if the threshold concentration is 31.3 μM to 250 μM) | M (moderate solubility if the threshold concentration is 31.3 μM to 250 μM) | > 10 µM | – | > 10 µM | > 10 µM | – | – | –
3 | CCOc1ncnc2[nH]cc(C(=O)c3c(F)ccc(NS(=O)(=O)c4ccc(C(F)(F)F)cc4)c3F)c12 [P-1006, N-[3-(4-Ethoxy-7H-pyrrolo[2,3-d]pyrimidine-5-carbonyl)-2,4-difluoro-phenyl]-4-trifluoromethyl-benzenesulfonamide] | > 10 µM | – | – | > 0.1 µM | >10 | < 0.1 µM | > 0.1 µM | 0.1-10 | 0.1-10 | > 10 µM | L (low solubility if the threshold concentration is <31.3 μM) | L (low solubility if the threshold concentration is <31.3 μM) | L (low solubility if the threshold concentration is <31.3 μM) | H (high solubility if the threshold concentration is >250 μm) | – | – | < 5 µM | > 10 µM | 5 to 10 µM | – | IC50 ([10]; read-out: Cyp IC50 1A2, CYP1A2, substrate CEC): > 10 µM
4 | CCCS(=O)(=O)Nc1ccc(F)c(C(=O)c2c[nH]c3ncc(C#N)c(Cl)c23)c1F [P-2004, Propane-1-sulfonic acid [3-(4-chloro-5-cyano-1H-pyrrolo[2,3-b]pyridine-3-carbonyl)-2,4-difluoro-phenyl]-amide] | > 10 µM | > 10 µM | – | < 0.1 µM | 0.1-10 | < 0.1 µM | < 0.1 µM | 0.1-10 | >10 | – | L (low solubility if the threshold concentration is <31.3 μM) | L (low solubility if the threshold concentration is <31.3 μM) | L (low solubility if the threshold concentration is <31.3 μM) | L (low solubility if the threshold concentration is <31.3 μM) | – | > 10 µM | – | – | < 5 µM | > 10 µM | IC50 [10]: > 10 µM
5 | CCCS(=O)(=O)Nc1ccc(F)c(C(=O)c2c[nH]c3ncc(Cl)c(OC)c23)c1F [P-2006, Propane-1-sulfonic acid [3-(5-chloro-4-methoxy-1H-pyrrolo[2,3-b]pyridine-3-carbonyl)-2,4-difluoro-phenyl]-amide] | > 10 µM | 5 to 10 µM | – | < 0.1 µM | 0.1-10 | < 0.1 µM | < 0.1 µM | 0.1-10 | >10 | – | M (moderate solubility if the threshold concentration is 31.3 μM to 250 μM) | M (moderate solubility if the threshold concentration is 31.3 μM to 250 μM) | M (moderate solubility if the threshold concentration is 31.3 μM to 250 μM) | M (moderate solubility if the threshold concentration is 31.3 μM to 250 μM) | – | > 10 µM | – | – | < 5 µM | < 5 µM | IC50 [10]: > 10 µM
6 | N#Cc1c(F)cnc2[nH]cc(C(=O)c3c(F)ccc(NS(=O)(=O)c4ccc(C(F)(F)F)cc4)c3F)c12 [P-2009, N-[3-(4-Cyano-5-fluoro-1H-pyrrolo[2,3-b]pyridine-3-carbonyl)-2,4-difluoro-phenyl]-4-trifluoromethyl-benzenesulfonamide] | > 10 µM | > 10 µM | – | > 0.1 µM | >10 | < 0.1 µM | < 0.1 µM | 0.1-10 | >10 | – | L (low solubility if the threshold concentration is <31.3 μM) | M (moderate solubility if the threshold concentration is 31.3 μM to 250 μM) | M (moderate solubility if the threshold concentration is 31.3 μM to 250 μM) | M (moderate solubility if the threshold concentration is 31.3 μM to 250 μM) | – | > 10 µM | – | – | > 10 µM | > 10 µM | IC50 [10]: > 10 µM
7 | O=C(c1c(F)ccc(NS(=O)(=O)c2ccc(C(F)(F)F)cc2)c1F)c1c[nH]c2ncnc(NC3CC3)c12 [P-1011, N-[3-(4-Cyclopropylamino-7H-pyrrolo[2,3-d]pyrimidine-5-carbonyl)-2,4-difluoro-phenyl]-4-trifluoromethyl-benzenesulfonamide] | > 10 µM | – | > 10 µM | > 0.1 µM | >10 | < 0.1 µM | < 0.1 µM | 0.1-10 | >10 | – | M (moderate solubility if the threshold concentration is 31.3 μM to 250 μM) | L (low solubility if the threshold concentration is <31.3 μM) | L (low solubility if the threshold concentration is <31.3 μM) | L (low solubility if the threshold concentration is <31.3 μM) | > 10 µM | – | < 5 µM | > 10 µM | – | 5 to 10 µM | –
8 | CC(C)Nc1ncnc2[nH]cc(C(=O)c3c(F)ccc(NS(=O)(=O)c4ccc(C(C)C)cc4)c3F)c12 [P-1044, N-[2,4-Difluoro-3-(4-isopropylamino-7H-pyrrolo[2,3-d]pyrimidine-5-carbonyl)-phenyl]-4-isopropyl-benzenesulfonamide] | > 10 µM | – | > 10 µM | > 0.1 µM | >10 | < 0.1 µM | < 0.1 µM | 0.1-10 | >10 | < 5 µM | M (moderate solubility if the threshold concentration is 31.3 μM to 250 μM) | M (moderate solubility if the threshold concentration is 31.3 μM to 250 μM) | M (moderate solubility if the threshold concentration is 31.3 μM to 250 μM) | M (moderate solubility if the threshold concentration is 31.3 μM to 250 μM) | > 10 µM | – | > 10 µM | > 10 µM | – | – | –

From patent US9617267B2, “Compounds and methods for kinase modulation, and indications therefor” (Plexxikon Inc., priority 2009, dated 2017)
